Measured values published in patent publication US20230097157A1, “Bicyclic Pyridin-2-one and pyrimidin-4-one Derivatives Useful As a Factor XIa Inhibitors” (Janssen Pharmaceutica NV, priority 2021, published 2023).
Read-outs that look alike come from different tables or passages of the source.

Columns and labels:
Factor XIa = Factor XIa (Homo sapiens, UniProt P03951); assay: Factor XIa inhibition assay (FLINT) utilizing a fluorophore-quencher pair peptide substrate 5Fam-[…]-K5Tamra; type: biochemical; details: kinetic (KIN) reads, read-out: FXIa KIN Inh IC50
Chain of Factor XIa (P03951 388-625 limits assumed): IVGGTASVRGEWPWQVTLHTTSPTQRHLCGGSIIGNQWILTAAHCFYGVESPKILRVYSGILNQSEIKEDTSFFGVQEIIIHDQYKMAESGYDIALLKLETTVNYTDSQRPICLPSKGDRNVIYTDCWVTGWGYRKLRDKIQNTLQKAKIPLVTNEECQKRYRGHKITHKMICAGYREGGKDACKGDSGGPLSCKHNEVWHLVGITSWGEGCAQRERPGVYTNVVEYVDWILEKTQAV
Chain of Factor XIa (P03951 19-387 partner limits assumed): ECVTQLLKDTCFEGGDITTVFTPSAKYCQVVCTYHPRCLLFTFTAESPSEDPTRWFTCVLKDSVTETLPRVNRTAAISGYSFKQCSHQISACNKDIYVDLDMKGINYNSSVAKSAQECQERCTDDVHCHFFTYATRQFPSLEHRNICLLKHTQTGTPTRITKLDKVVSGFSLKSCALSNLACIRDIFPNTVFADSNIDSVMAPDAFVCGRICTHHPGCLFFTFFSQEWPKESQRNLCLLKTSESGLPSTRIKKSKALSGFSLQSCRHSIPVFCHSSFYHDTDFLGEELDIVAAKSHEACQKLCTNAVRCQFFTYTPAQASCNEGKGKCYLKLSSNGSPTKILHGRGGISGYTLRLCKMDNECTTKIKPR
Summary of the method: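 Compounds were tested as 11-point 3-fold dilutions from 100 nM (2% DMSO). They were preincubated 30 min with FXIa in 50 mM Tris pH 7.5, 5 mM CaCl2, then 15 μM fluorophore-quencher peptide was added. Cleavage was followed at 485/520 nm over 30 min, and IC50 was derived by 4-parameter logistic fit.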

human plasma kallikrein = human plasma kallikrein (Homo sapiens, UniProt P03952); assay: Kallikrein inhibition assay (FLINT) utilizing a quenched AMC peptide substrate Z-Gly-Pro-Arg-AMC; type: biochemical; details: kinetic (KIN) reads, read-out: Kallikrein KIN Inh IC50
Chain of human plasma kallikrein (P03952 391-638 limits assumed): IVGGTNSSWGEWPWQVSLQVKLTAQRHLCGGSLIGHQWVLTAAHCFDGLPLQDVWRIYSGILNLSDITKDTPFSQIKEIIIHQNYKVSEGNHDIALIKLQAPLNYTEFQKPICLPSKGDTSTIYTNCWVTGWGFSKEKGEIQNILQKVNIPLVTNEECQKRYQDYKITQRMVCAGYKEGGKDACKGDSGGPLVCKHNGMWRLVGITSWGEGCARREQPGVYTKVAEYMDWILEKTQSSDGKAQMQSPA
Chain of human plasma kallikrein (P03952 20-390 partner limits assumed): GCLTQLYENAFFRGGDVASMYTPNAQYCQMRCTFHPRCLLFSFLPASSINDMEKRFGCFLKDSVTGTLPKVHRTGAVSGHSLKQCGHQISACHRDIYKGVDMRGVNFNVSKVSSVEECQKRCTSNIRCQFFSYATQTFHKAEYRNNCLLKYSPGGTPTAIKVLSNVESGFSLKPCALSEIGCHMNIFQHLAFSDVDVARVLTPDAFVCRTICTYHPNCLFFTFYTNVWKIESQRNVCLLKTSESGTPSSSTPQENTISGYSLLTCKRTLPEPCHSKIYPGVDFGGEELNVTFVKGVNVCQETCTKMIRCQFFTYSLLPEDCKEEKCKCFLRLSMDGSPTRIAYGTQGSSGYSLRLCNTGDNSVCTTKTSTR
Summary of the method: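 IC50 from a 4-parameter logistic fit of % inhibition from 11 concentrations (3-fold, top 1 μM, 2% DMSO). Compound pre-incubated 30 min with 2 nM enzyme in Tris pH 7.5, NaCl, CaCl2, BSA, CHAPS, then 50 μM AMC peptide substrate added. Fluorescence (340/440 nm) followed every 5 min for 30 min at room temperature.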

Structure (SMILES)	IC50 (Factor XIa; values in nM)	IC50 (human plasma kallikrein; values in nM)	IC50 (human plasma kallikrein; unit μM)	IC50 (Factor XIa; unit μM)
C[C@H]1C[C@@H](c2ncc(-c3ccnn3C)[nH]2)n2c1nc(-c1c(-n3cnnn3)ccc(Cl)c1F)cc2=O (stereo in doubt) [Example 144, (6S*,8S*)-2-(3-Chloro-2-fluoro-6-(1H-tetrazol-1-yl)phenyl)-8-methyl-6-(5-(1-methyl-1H-pyrazol-5-yl)-1H-imidazol-2-yl)-7,8-dihydropyrrolo[1,2-a]pyrimidin-4(6H)-one]	62.1 nM	246 nM	–	–
COc1nccc(-c2cnc([C@H]3C[C@H](C)c4nc(-c5c(-n6cnnn6)ccc(Cl)c5F)cc(=O)n43)[nH]2)n1 (relative stereo) [Example 104, (6*R,8*S)-2-(3-Chloro-2-fluoro-6-(1H-tetrazol-1-yl)phenyl)-6-(5-(2-methoxypyrimidin-4-yl)-1H-imidazol-2-yl)-8-methyl-7,8-dihydropyrrolo[1,2-a]pyrimidin-4(6H)-one]	113 nM	115 nM	–	–
CO[C@@H]1C[C@H](c2ncc(-c3ccc(N)nc3F)[nH]2)n2c1cc(-c1c(-n3cnnn3)ccc(Cl)c1F)cc2=O (relative stereo) [Example 151, (1*R,3*R)-3-(5-(6-Amino-2-fluoropyridin-3-yl)-1H-imidazol-2-yl)-7-(3-chloro-2-fluoro-6-(1H-tetrazol-1-yl)phenyl)-1-methoxy-2,3-dihydroindolizin-5(1H)-one]	0.3 nM	14 nM	–	–
Cc1cc(-c2cnc([C@H]3C[C@H](C)c4cc(-c5c(-n6cnnn6)ccc(Cl)c5F)cc(=O)n43)[nH]2)ccn1 (stereo in doubt) [Example 42, (1*S,3*R)-7-(3-Chloro-2-fluoro-6-(1H-tetrazol-1-yl)phenyl)-1-methyl-3-(5-(2-methylpyridin-4-yl)-1H-imidazol-2-yl)-2,3-dihydroindolizin-5(1H)-one]	3.3 nM	33 nM	–	–
Cc1nc(N)cnc1-c1cnc([C@H]2CC(C)c3nc(-c4c(-n5cnnn5)ccc(Cl)c4F)cc(=O)n32)[nH]1 (stereo partly drawn) [Example 96, (6R)-6-(5-(5-Amino-3-methylpyrazin-2-yl)-1H-imidazol-2-yl)-2-(3-chloro-2-fluoro-6-(1H-tetrazol-1-yl)phenyl)-8-methyl-7,8-dihydropyrrolo[1,2-a]pyrimidin-4(6H)-one]	> 100 nM	–	> 1000 nM	–
C[C@@H]1C[C@H](c2ncc(-c3ccc4nccn4c3)[nH]2)n2c1cc(-c1c(-n3cnnn3)ccc(Cl)c1F)cc2=O (stereo in doubt) [Example 49, (1R*,3R*)-7-(3-Chloro-2-fluoro-6-(1H-tetrazol-1-yl)phenyl)-3-(5-(imidazo[1,2-a]pyridin-6-yl)-1H-imidazol-2-yl)-1-methyl-2,3-dihydroindolizin-5(1H)-one]	24.2 nM	44.3 nM	–	–
COC(=O)Nc1ccc(-c2cnc([C@H]3C[C@H](C)c4nc(-c5c(-n6cnnn6)ccc(Cl)c5F)cc(=O)n43)[nH]2)cn1 (stereo in doubt) [Example 115, methyl (5-(2-((6R*,8S*)-2-(3-Chloro-2-fluoro-6-(1H-tetrazol-1-yl)phenyl)-8-methyl-4-oxo-4,6,7,8-tetrahydropyrrolo[1,2-a]pyrimidin-6-yl)-1H-imidazol-5-yl)pyridin-2-yl)carbamate]	247 nM	–	6000 nM	–
C[C@H]1C[C@H](c2ncc(-c3ccnc(C#N)c3)[nH]2)n2c1cc(-c1c(-n3cnnn3)ccc(Cl)c1F)cc2=O (relative stereo) [Example 30, 4-(2-((1S,3R)-7-(3-Chloro-2-fluoro-6-(1H-tetrazol-1-yl)phenyl)-1-methyl-5-oxo-1,2,3,5-tetrahydroindolizin-3-yl)-1H-imidazol-5-yl)picolinonitrile]	873 nM	–	1200 nM	–
Nc1ncc(-c2cnc([C@@H]3CC4(CC4)c4cc(-c5c(-n6cnnn6)ccc(Cl)c5F)cc(=O)n43)[nH]2)s1 [Example 18, (S)-3′-(5-(2-Aminothiazol-5-yl)-1H-imidazol-2-yl)-7′-(3-chloro-2-fluoro-6-(1H-tetrazol-1-yl)phenyl)-2′,3′-dihydro-5′H-spiro[cyclopropane-1,1′-indolizin]-5′-one]	9.1 nM	105 nM	–	–
COc1nccc(-c2cnc([C@@H]3C[C@H](C)c4nc(-c5c(-n6cnnn6)ccc(Cl)c5F)cc(=O)n43)[nH]2)n1 (relative stereo) [Example 103, (6S,8S)-2-(3-chloro-2-fluoro-6-(1H-tetrazol-1-yl)phenyl)-6-(5-(2-methoxypyrimidin-4-yl)-1H-imidazol-2-yl)-8-methyl-7,8-dihydropyrrolo[1,2-a]pyrimidin-4(6H)-one]	63.4 nM	151 nM	–	–
C[C@@H]1C[C@H](c2ncc(-c3cnnn3C)[nH]2)n2c1nc(-c1c(-n3cnnn3)ccc(Cl)c1F)cc2=O (relative stereo) [Example 135, (6*R,8*R)-2-(3-Chloro-2-fluoro-6-(1H-tetrazol-1-yl)phenyl)-8-methyl-6-(5-(1-methyl-1H-1,2,3-triazol-5-yl)-1H-imidazol-2-yl)-7,8-dihydropyrrolo[1,2-a]pyrimidin-4(6H)-one]	–	–	> 10000 nM	2700 nM
O=c1cc(-c2c(-n3cnnn3)ccc(Cl)c2F)nc2n1[C@H](c1nc(-c3ccnc(OCC(O)C(F)(F)F)c3F)c[nH]1)CC21CC1 (single isomer, unassigned) [Example 74, (S)-2′-(3-chloro-2-fluoro-6-(1H-tetrazol-1-yl)phenyl)-6′-(4-(3-fluoro-2-((R*)-3,3,3-trifluoro-2-hydroxypropoxy)pyridin-4-yl)-1H-imidazol-2-yl)-6′,7′-dihydro-4′H-spiro[cyclopropane-1,8′-pyrrolo[1,2-a]pyrimidin]-4′-one]	32.1 nM	27.7 nM	–	–
C[C@H]1C[C@@H](c2ncc(-c3ccc4c(=O)cc[nH]c4c3)[nH]2)n2c1nc(-c1c(-n3cnnn3)ccc(Cl)c1F)cc2=O (relative stereo) [Example 102, 7-(2-((6*S,8*S)-2-(3-Chloro-2-fluoro-6-(1H-tetrazol-1-yl)phenyl)-8-methyl-4-oxo-4,6,7,8-tetrahydropyrrolo[1,2-a]pyrimidin-6-yl)-1H-imidazol-5-yl)quinolin-4(1H)-one]	18.2 nM	446 nM	–	–
COC(=O)Nc1ccc(-c2cnc([C@H]3C[C@H](C)c4nc(-c5c(-n6cnnn6)ccc(Cl)c5F)cc(=O)n43)[nH]2)cc1 (stereo in doubt) [Example 124, Methyl (4-(2-((6*R,8*S)-2-(3-Chloro-2-fluoro-6-(1H-tetrazol-1-yl)phenyl)-8-methyl-4-oxo-4,6,7,8-tetrahydropyrrolo[1,2-a]pyrimidin-6-yl)-1H-imidazol-5-yl)phenyl)carbamate]	8.3 nM	52.9 nM	–	–
C[C@H]1C[C@@H](c2ncc(-c3cc(N)ncc3F)[nH]2)n2c1cc(-c1c(-n3cnnn3)ccc(Cl)c1F)cc2=O [Example 19, (1S,3S)-3-(5-(2-Amino-5-fluoropyridin-4-yl)-1H-imidazol-2-yl)-7-(3-chloro-2-fluoro-6-(1H-tetrazol-1-yl)phenyl)-1-methyl-2,3-dihydroindolizin-5(1H)-one]	25.4 nM	270 nM	–	–
C[C@H]1C[C@@H](c2ncc(-c3ccc(N)nc3F)[nH]2)n2c1cc(-c1c(-n3cnnn3)ccc(Cl)c1F)cc2=O (stereo in doubt) [Example 68, (1*S,3*S)-3-(5-(6-Amino-2-fluoropyridin-3-yl)-1H-imidazol-2-yl)-7-(3-chloro-2-fluoro-6-(1H-tetrazol-1-yl)phenyl)-1-methyl-2,3-dihydroindolizin-5(1H)-one]	–	–	> 10000 nM	> 10000 nM
CC1CC(c2ncc(-c3ccnc(CO)c3F)[nH]2)n2c1nc(-c1c(-n3cnnn3)ccc(Cl)c1F)cc2=O (single isomer, unassigned) [Example 78, (6R*)-2-(3-Chloro-2-fluoro-6-(1H-tetrazol-1-yl)phenyl)-6-(5-(3-fluoro-2-(hydroxymethyl)pyridin-4-yl)-1H-imidazol-2-yl)-8-methyl-7,8-dihydropyrrolo[1,2-a]pyrimidin-4(6H)-one]	> 100 nM	463 nM	–	–
C[C@H]1C[C@@H](c2ncc(-c3ccn4nccc4c3)[nH]2)n2c1cc(-c1c(-n3cnnn3)ccc(Cl)c1F)cc2=O (stereo in doubt) [Example 53, (1*S,3*S)-7-(3-Chloro-2-fluoro-6-(1H-tetrazol-1-yl)phenyl)-1-methyl-3-(5-(pyrazolo[1,5-a]pyridin-5-yl)-1H-imidazol-2-yl)-2,3-dihydroindolizin-5(1H)-one]	43.7 nM	54 nM	–	–
COC(=O)Nc1ccc(-c2cnc([C@@H]3C[C@@H](OC)c4cc(-c5c(-n6cnnn6)ccc(Cl)c5F)cc(=O)n43)[nH]2)cc1 [Example 152, Methyl (4-(2-((1R,3S)-7-(3-chloro-2-fluoro-6-(1H-tetrazol-1-yl)phenyl)-1-methoxy-5-oxo-1,2,3,5-tetrahydroindolizin-3-yl)-1H-imidazol-5-yl)phenyl)carbamate]	0.3 nM	1.5 nM	–	–
COc1cc(-c2cnc([C@@H]3C[C@H](C)c4nc(-c5c(-n6cnnn6)ccc(Cl)c5F)cc(=O)n43)[nH]2)ccn1 (stereo in doubt) [Example 97, (6*S,8*S)-2-(3-Chloro-2-fluoro-6-(1H-tetrazol-1-yl)phenyl)-6-(5-(2-methoxypyridin-4-yl)-1H-imidazol-2-yl)-8-methyl-7,8-dihydropyrrolo[1,2-a]pyrimidin-4(6H)-one]	–	–	> 10000 nM	6400 nM
